# Test results published in ChEMBL document CHEMBL1152737, “Synthesis and biological evaluation of fused thio- and selenopyrans as new indolocarbazole analogues with aryl hydrocarbon receptor affinity” (Bioorg Med Chem, 2009).
# Tested on: Aryl hydrocarbon receptor (Cavia porcellus)
# Assay: Activation of AhR expressed in guinea pig cytosolic fractions over expressed with XRE by ELISA based Ah-immunoassay relative to TCDD
row,Structure (SMILES),Activity
1,Cc1c2c3ccccc3nc-2[se]c2[nH]c3ccccc3c12,0.38
2,c1ccc2c3cc4c([nH]c5ccccc54)[se]c-3nc2c1,0.32
3,COc1ccc2nc3[se]c4[nH]c5ccc(OC)cc5c4c(C)c-3c2c1,0.013
4,COc1ccc2nc3[se]c4[nH]c5ccc(OC)cc5c4cc-3c2c1,0.009
5,C1=Cc2sc3ccccc3c2[Se]c2c1sc1ccccc21,0.018

# Now from value to compound:
row,Activity,Structure (SMILES)
1,0.36,Cc1c2c3ccccc3nc-2sc2[nH]c3ccccc3c12
2,0.29,c1ccc2c3cc4c([nH]c5ccccc54)sc-3nc2c1
3,0.039,O=c1c2c([nH]c3ccccc32)sc2[nH]c3ccccc3c12
4,0.132,c1ccc2c3cc4[nH]c5ccccc5c4sc-3nc2c1
5,1.48,c1ccc2c(c1)[nH]c1cc3c(cc12)[nH]c1ccccc13
6,0.0033,CC1(C)c2c([nH]c3ccccc23)Sc2[nH]c3ccccc3c21
7,0.055,C1=Cc2sc3ccccc3c2Sc2c1sc1ccccc21
